Assay results from the CheMixHub viscosity set.
Where “and” joins values, the source holds several entries; their conditions need not be identical. Identical values can stand only once.

Assay: xn = mol fraction of the nth substance listed

CC(C)Cc1ccccc1 + COC(=O)c1ccccc1
viscosity [mPa·s], 101 kPa
Conditions	x2 = 0.1256	x2 = 0.2427	x2 = 0.355	x2 = 0.4602	x2 = 0.5572	x2 = 0.6486	x2 = 0.7454	x2 = 0.8333	x2 = 0.9166
303.15 K	0.957	1.001	1.057	1.127	1.195	1.274	1.363	1.467	1.555
313.15 K	0.824	0.862	0.908	0.961	1.011	1.075	1.145	1.215	1.288

CCC(C)CC + COC(C)(C)C
298.15 K, 101.33 kPa
Conditions	viscosity [mPa·s]
x2 = 0.0876	0.2925
x2 = 0.1993	0.2945
x2 = 0.2983	0.2972
x2 = 0.3943	0.3008
x2 = 0.5016	0.3049
x2 = 0.5934	0.3089
x2 = 0.6935	0.3139
x2 = 0.7963	0.3199
x2 = 0.8984	0.3268

CC(C)CN + COCCO
298.15 K, 101 kPa
Conditions	viscosity [mPa·s]
x2 = 0.05	0.614
x2 = 0.1001	0.666
x2 = 0.1511	0.719
x2 = 0.2	0.788
x2 = 0.2513	0.869
x2 = 0.2996	0.95
x2 = 0.3519	1.043
x2 = 0.4002	1.132
x2 = 0.4491	1.221
x2 = 0.4989	1.308
x2 = 0.5501	1.387
x2 = 0.6	1.457
x2 = 0.6521	1.52
x2 = 0.6999	1.567
x2 = 0.7502	1.608
x2 = 0.8	1.632
x2 = 0.8512	1.643
x2 = 0.9	1.641
x2 = 0.9492	1.609

O=C1CCCN1 + COCCO
298.15 K, 101 kPa
Conditions	viscosity [mPa·s]
x1 = 0.0049	1.544
x1 = 0.0127	1.567
x2 = 0.0059	14.01
x2 = 0.0144	13.59
x2 = 0.0218	13.27
x2 = 0.0326	12.77
x2 = 0.0446	12.37
x2 = 0.0689	11.33
x2 = 0.0849	10.74
x2 = 0.1078	10.07
x2 = 0.127	9.467
x2 = 0.1824	8.072
x2 = 0.2392	6.994
x2 = 0.2918	6.075
x2 = 0.3249	5.599
x2 = 0.3711	5.006
x2 = 0.4202	4.585
x2 = 0.5242	3.631
x2 = 0.5773	3.264
x2 = 0.6342	2.895
x2 = 0.6686	2.717
x2 = 0.7286	2.446
x2 = 0.7755	2.248
x2 = 0.8174	2.089
x2 = 0.8558	1.966
x2 = 0.9003	1.819
x2 = 0.9214	1.756
x2 = 0.9381	1.703
x2 = 0.9524	1.669
x2 = 0.9729	1.604

[Cl-].[Cl-].[Cl-].[Cl-].[Sn+4] + COc1ccccc1
viscosity [mPa·s], 101 kPa
Conditions	x2 = 0.5074	x2 = 0.6728	x2 = 0.782	x2 = 0.8238	x2 = 0.864	x2 = 0.9558
293.15 K	0.932	0.958	1.01	1.04	1.07	1.1
313.15 K	0.724	0.732	0.746	0.765	0.779	0.811

Cc1cc(C)cc(C)c1 + CS(C)=O
viscosity [mPa·s], 101.3 kPa
Conditions	x2 = 0.0996	x2 = 0.1961	x2 = 0.3046	x2 = 0.4024	x2 = 0.5049	x2 = 0.6057	x2 = 0.7047	x2 = 0.8055	x2 = 0.9018
298.15 K	0.699	0.772	0.865	1.018	1.168	1.28	1.367	1.508	1.711
303.15 K	0.654	0.718	0.799	0.901	1.029	1.136	1.241	1.372	1.553
308.15 K	0.616	0.674	0.747	0.831	0.935	1.036	1.135	1.266	1.42

Cc1cc(C)cc(C)c1 + C[N+](=O)[O-]
293.15 K, 101.33 kPa
Conditions	viscosity [mPa·s]
x2 = 0.1192	0.686
x2 = 0.2065	0.683
x2 = 0.3019	0.679
x2 = 0.3858	0.679
x2 = 0.4761	0.674
x2 = 0.6061	0.671
x2 = 0.7112	0.666
x2 = 0.7985	0.657
x2 = 0.8912	0.648

OCCCCO + C[N+](C)(C)CCO.[Cl-]
viscosity [mPa·s]
Conditions	293.15 K	298.15 K	298.2 K	303.15 K	308.15 K	308.2 K	313.15 K	318.15 K	318.2 K	323.15 K
101 kPa, x2 = 0.2	–	70.2	–	–	–	–	–	32.3	–	–
101.3 kPa, x1 = 0.7519	112.9	87.4	–	70.16	59.73	–	47.89	39.53	–	33.04
101.3 kPa, x1 = 0.8	99.69	78.77	–	62.96	51.08	–	41.67	34.51	–	28.9
101.3 kPa, x1 = 0.8334	93.6	74.9	–	59.28	48	–	39.41	32.5	–	27.36
101.3 kPa, x1 = 0.8575	91.44	72.28	–	57.86	46.72	–	38.31	31.67	–	26.47
101.3 kPa, x2 = 0.1672	–	–	75.5	–	–	58.2	–	–	42.8	–
101.3 kPa, x2 = 0.2	–	–	–	54.75	44.49	–	36.66	30.4	–	25.74
101.3 kPa, x2 = 0.25	–	–	–	60.64	49.3	–	40.55	33.94	–	28.53

O=S=O + Cc1cc(C)cc(C)c1
298.15 K, 101 kPa
Conditions	viscosity [mPa·s]
x1 = 0.137	0.6381
x1 = 0.223	0.6062
x1 = 0.255	0.5926

Cc1cc(C)cc(C)c1 + Cc1ccccc1
viscosity [mPa·s]
Conditions	100 kPa	101.33 kPa
298.15 K, x2 = 0.5	0.5957	0.5957
298.24 K, x2 = 0.8	0.5709	0.5709
303.16 K, x2 = 0.5	–	0.5616
303.18 K, x2 = 0.8	–	0.5394
307.82 K, x2 = 0.8	–	0.5125
308.22 K, x2 = 0.5	–	0.5315
313.14 K, x2 = 0.5	0.505	0.505
313.26 K, x2 = 0.8	0.4837	0.4837
317.67 K, x2 = 0.8	–	0.4619
318.09 K, x2 = 0.5	–	0.4792
322.66 K, x2 = 0.8	–	0.4389
322.74 K, x2 = 0.5	–	0.4583

O=S=O + Cc1ccccc1
298.15 K, 101 kPa
Conditions	viscosity [mPa·s]
x1 = 0.0185	0.5449
x1 = 0.0455	0.5339
x1 = 0.104	0.5121
x1 = 0.1897	0.4881

Cc1cc(C)cc(C)c1 + ClC(Cl)(Cl)Cl
298.15 K, 101 kPa
Conditions	viscosity [mPa·s]
x1 = 0.1	0.8579
x1 = 0.2	0.8194
x1 = 0.3	0.7889
x1 = 0.4	0.7637
x1 = 0.5	0.7421
x1 = 0.6	0.7226
x1 = 0.7	0.7044
x1 = 0.8	0.6875
x1 = 0.9	0.672

O=S=O + ClC(Cl)(Cl)Cl
298.15 K, 101 kPa
Conditions	viscosity [mPa·s]
x1 = 0.00784	0.8572
x1 = 0.0163	0.841
x1 = 0.0185	0.8352
x1 = 0.0267	0.82

O=S=O + ClC(Cl)Cl
298.15 K, 101 kPa
Conditions	viscosity [mPa·s]
x1 = 0.0035	0.5141
x1 = 0.004762	0.5053
x1 = 0.00539	0.5022

OCCCCO + NC=O
Conditions	viscosity [mPa·s]
318.15 K, 101 kPa, x2 = 0.1052	18.95

Cc1ncc(CO)c(CO)c1O.Cl + O
101 kPa
Conditions	viscosity
293.15 K, x1 = 0.001798	1.047 mPa·s
293.15 K, x1 = 0.0018	1.047 mPa·s
298.15 K, x1 = 0.00081	0.9087 mPa·s
298.15 K, x1 = 0.000909	0.918 mPa·s
298.15 K, x1 = 0.001809	0.95 mPa·s
298.15 K, x1 = 0.002028	0.9328 mPa·s
298.15 K, x1 = 0.002489	0.9415 mPa·s
298.15 K, x1 = 0.002657	0.96 mPa·s
298.15 K, x1 = 0.003638	0.99 mPa·s
298.15 K, x1 = 0.003926	0.9708 mPa·s
298.15 K, x1 = 0.004487	1.007 mPa·s
298.15 K, x1 = 0.004756	0.9841 mPa·s
298.15 K, x1 = 0.005406	1.027 mPa·s
298.15 K, x1 = 0.006266	1.04 mPa·s
298.15 K, x1 = 0.006666	1.03 mPa·s
298.15 K, x1 = 0.007307	1.06 mPa·s
298.15 K, x1 = 0.00813	1.073 mPa·s
298.15 K, x1 = 0.008945	1.084 mPa·s
298.15 K, x1 = 0.009813	1.108 mPa·s
303.15 K, x1 = 0.0018	0.832 mPa·s
303.15 K, x1 = 0.00359	0.8603 mPa·s and 0.8604 mPa·s
308.15 K, x1 = 0.002028	0.7519 mPa·s
308.15 K, x1 = 0.002489	0.7601 mPa·s
308.15 K, x1 = 0.003926	0.7829 mPa·s
308.15 K, x1 = 0.004756	0.7924 mPa·s
308.15 K, x1 = 0.006666	0.828 mPa·s
313.15 K, x1 = 0.001798	0.6798 mPa·s and 0.6802 mPa·s and 0.68 mPa·s
313.15 K, x1 = 0.00359	0.7025 mPa·s
313.15 K, x1 = 0.007154	0.7543 mPa·s and 0.7545 mPa·s
318.15 K, x1 = 0.002028	0.6236 mPa·s
318.15 K, x1 = 0.002489	0.6303 mPa·s
318.15 K, x1 = 0.003926	0.649 mPa·s
318.15 K, x1 = 0.004756	0.6605 mPa·s
318.15 K, x1 = 0.006666	0.6863 mPa·s
323.15 K, x1 = 0.001798	0.5675 mPa·s
323.15 K, x1 = 0.0018	0.5673 mPa·s
323.15 K, x1 = 0.005375	0.6071 mPa·s and 0.6075 mPa·s and 0.6074 mPa·s

O=P([O-])([O-])O.[Na+].[Na+] + O
viscosity [mPa·s]
Conditions	293.15 K	298.15 K	303.15 K	308.15 K
100 kPa, x1 = 0.01115	–	1.215	1.095	–
100 kPa, x1 = 0.01333	1.455	–	–	–
100 kPa, x1 = 0.01698	–	–	–	1.175
101 kPa, x1 = 0.0018	–	0.948	0.8587	0.7663
101 kPa, x1 = 0.0054	–	1.05	0.968	0.8559
101 kPa, x1 = 0.0089	–	1.232	1.076	0.94
101 kPa, x1 = 0.012	–	1.441	1.228	1.152
101 kPa, x1 = 0.016	–	1.727	1.536	1.452

OCCOCCOCCOCCOCCOCCO + O
viscosity [mPa·s], 100 kPa
Conditions	293.15 K	298.15 K	303.15 K	308.15 K	313.15 K	318.15 K	323.15 K
x2 = 0.086	84.1	63.85	49.38	39.16	31.47	25.71	21.3
x2 = 0.154	83.43	63.21	48.95	38.71	31.12	25.38	21.01
x2 = 0.191	79.58	61.16	47.41	37.44	30.09	24.56	20.43
x2 = 0.222	81.84	62.01	47.77	37.78	30.44	24.83	20.66
